Read-outs that look alike come from different tables or passages of the source.
Tests used:
[1] = system: Nrf2 (Keap1-NRF2 nuclear translocation); assay: U2OS translocation assay (PathHunter U2OS Keap1-NRF2 Nuclear Translocation Cell Line); type: cell-based
Method in brief: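 PathHunter U2OS line expressing Nrf2-enzyme-donor fusion and nuclear acceptor enzyme, 7 500 cells/well in Opti-MEM, 1% FBS. Compounds incubated 3 h at 37° C. Luminescence after 60 min with detection reagent, normalized between 1% DMSO and 10 μM andrographolide.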

[2] = target: T1, Keap1 (A321-C624) (h) (Homo sapiens, UniProt Q14145); assay: Surface Plasmon Resonance binding assay to Kelch domain of KEAP1; conditions: Biacore T200, 25° C., immobilized His-Thromb-KEAP1(A321-C624), single cycle kinetics, KD=kd/ka from 1:1 fit; read-out: Keap1 (A321-C624) (h) direct/SPR (KD)
T1 construct: His-Thromb-KEAP1(A321-C624) acquired from Novalix (batch PU-P01) was immobilized covalently by amine coupling; His tag (N); thrombin cleavage site (Thromb) (N); purchased Novalix batch PU-P01
Protocol: EXAMPLE 85: SURFACE PLASMON RESONANCE
Binding assay to Kelch domain of KEAP1 was performed by Surface Plasmon Resonance (SPR) on a Biacore T200 (GE Healthcare) at 25° C. using CM5 chip. His-Thromb-KEAP1(A321-C624) acquired from Novalix (batch PU-P01) was immobilized covalently by amine coupling using standard wizard protocol, at a concentration of 20 μg/mL in sodium acetate pH 5.5. The ligand was captured until 1250 RU was reached. Amine blank is used as the reference flow cell. Binding of analyte to the ligand was monitored in real time with associations of 180 seconds and a dissociation of 720 seconds. Association (ka) and dissociation (kd) rates were fitted with a simple 1:1 kinetic interaction model using Biacore T200 Evaluation Software (GE Healthcare). The equilibrium constant (KD=kd/ka) was calculated from these fitted parameters. […] The Biacore binding assay was performed with a flowrate of 50 μL/min using a running buffer of 10 mM HEPES (pH 7.4), 150 mM NaCl, 3 mM EDTA, 1 mM TCEP, 0.05% P20,5% DMSO. Double subtraction was used by subtracting both reference flow cell and previous blank cycle (with running buffer). Solvent correction was applied to correct DMSO bulk effect.

[3] = Homo sapiens, U2OS, 3 h, read-out: CELLULAR U2OS EC50 (nM), U2OS Keap1-NRF2 nuclear translocation cells, 3 h incubation, luminescence, normalized between 1% DMSO and 10 μM andrographolide
[4] = read-out: CELLULAR U2OS EC50, U2OS Keap1-NRF2 nuclear translocation cells, 3 h incubation, luminescence, normalized between 1% DMSO and 10 μM andrographolide

T1 sequence (Q14145 321-624): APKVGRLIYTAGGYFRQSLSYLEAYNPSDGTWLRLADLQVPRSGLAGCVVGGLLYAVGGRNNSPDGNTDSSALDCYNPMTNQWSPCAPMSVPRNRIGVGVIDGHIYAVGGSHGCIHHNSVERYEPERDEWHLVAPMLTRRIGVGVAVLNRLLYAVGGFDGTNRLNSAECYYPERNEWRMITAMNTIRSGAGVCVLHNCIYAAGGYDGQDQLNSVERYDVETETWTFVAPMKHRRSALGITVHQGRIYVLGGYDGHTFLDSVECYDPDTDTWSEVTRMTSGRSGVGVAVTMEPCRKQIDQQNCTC

Kd [2]	SMILES	EC50 [1, 3]	EC50 [1, 4]
23.6 nM	Cc1ccc2cc1CN1Cc3cc(ccc3OS1(=O)=O)OCCCCn1cc(nn1)C(=O)NC2CC(=O)O (single isomer, unassigned) [Example 72a, [4-Methyl-10,25,25-trioxo-19,24-dioxa-25λ^6-thia-1,9,12,13,14-pentaazapentacyclo[18.5.3.1^3,70.1^11,140.0^23,27]triaconta-3(30),4,6,11(29),12,20,22,27-octaen-8-yl]acetic acid]	> 3160 nM	
0.137 nM	Cc1ccc2cc1CN1Cc3cc(ccc3N(C)S1(=O)=O)OCCCCn1nnc3c(C)c(ccc31)C2CC(=O)O (single isomer, unassigned) [Example 39a, [4,26,31-Trimethyl-27,27-dioxo-21-oxa-27λ^6-thia-1,14,15,16,26-pentaazahexacyclo[20.5.3.1^3,70.1^9,130.0^12,160.0^25,29]dotriaconta-3(32),4,6,9(31),10,12,14,22,24,29-decaen-8-yl]acetic acid]		14.2 nM
33600 nM	COc1cc2cc(c1OC)CN1Cc3cc(ccc3OS1(=O)=O)OCCCCn1nnc3c(C)c(ccc31)C2CC(=O)O (single isomer, unassigned) [Example 35a, [4,5-Dimethoxy-31-methyl-27,27-dioxo-21,26-dioxa-27λ^6-thia-1,14,15,16-tetraazahexacyclo[20.5.3.1^3,70.1^9,130.0^12,160.0^25,29]dotriaconta-3(32),4,6,9(31),10,12,14,22,24,29-decaen-8-yl]acetic acid]	> 3160 nM	
3.67 nM	Cc1c(F)cc2cc1CN1Cc3cc(ccc3OS1(=O)=O)OCCCCn1nnc3c(C)c(ccc31)C2CC(=O)O (single isomer, unassigned) [Example 18a, [5-Fluoro-4,31-dimethyl-27,27-dioxo-21,26-dioxa-27λ^6-thia-1,14,15,16-tetraazahexacyclo[20.5.3.1^3,70.1^9,130.0^12,160.0^25,29]dotriaconta-3(32),4,6,9(31),10,12,14,22,24,29-decaen-8-yl]acetic acid]		1140 nM
5.51 nM	COc1ccc2cc1[C@@H](C)N1Cc3cc(ccc3OS1(=O)=O)OCCCCCCn1nnc3c(C)c(ccc31)[C@H]2CC(=O)O [Example 40a, [(2R,8S)-4-methoxy-2,33-dimethyl-29,29-dioxo-23,28-dioxa-29λ^6-thia-1,14,15,16-tetraazahexacyclo[22.5.3.1^3,70.1^9,130.0^12,160.0^27,31]tetratriaconta-3(34),4,6,9(33),10,12,14,24,26,31-decaen-8-yl]acetic acid]	9.72 nM	
17.6 nM	Cc1ccc2cc1CN1Cc3cc(ccc3OS1(=O)=O)OCCCCCOc1cc(c(C)c3nnn(C)c13)C2CC(=O)O (single isomer, unassigned) [Example 73b, [4,10,14-Trimethyl-29,29-dioxo-17,23,28-trioxa-29λ^6-thia-1,12,13,14-tetraazahexacyclo[22.5.3.1^3,70.1^9,160.0^11,150.0^27,31]tetratriaconta-3(34),4,6,9(33),10,12,15,24,26,31-decaen-8-yl]acetic acid]		707 nM
0.678 nM	Cc1ccc2cc1CN1Cc3c(ccc(c3Cl)OCCCCn3nnc4c(C)c(ccc43)C2CC(=O)O)OS1(=O)=O (single isomer, unassigned) [Example 66a, [30-Chloro-4,31-dimethyl-27,27-dioxo-21,26-dioxa-27λ^6-thia-1,14,15,16-tetraazahexacyclo[20.5.3.1^3,70.1^9,130.0^12,160.0^25,29]dotriaconta-3(32),4,6,9(31),10,12,14,22,24,29-decaen-8-yl]acetic acid]		3.44 nM
12.4 nM	COc1cc2cc(c1)C(CC(=O)O)c1ccc3c(nnn3CCCCOc3ccc4c(c3)CN(C2)S(=O)(=O)O4)c1C (single isomer, unassigned) [Example 8b, [5-Methoxy-31-methyl-27,27-dioxo-21,26-dioxa-27λ^6-thia-1,14,15,16-tetraazahexacyclo[20.5.3.1^3,70.1^9,130.0^12,160.0^25,29]dotriaconta-3(32),4,6,9(31),10,12,14,22,24,29-decaen-8-yl]acetic acid]		516 nM
25.7 nM	Cc1ccc2cc1CN1Cc3cc(cc(F)c3OS1(=O)=O)OCCCCn1nnc3c(C)c(ccc31)C2CC(=O)O (single isomer, unassigned) [Example 17a, [24-Fluoro-4,31-dimethyl-27,27-dioxo-21,26-dioxa-27λ^6-thia-1,14,15,16-tetraazahexacyclo[20.5.3.1^3,70.1^9,130.0^12,160.0^25,29]dotriaconta-3(32),4,6,9(31),10,12,14,22,24,29-decaen-8-yl]acetic acid]		1660 nM
1.07 nM	Cc1ccc2cc1CN1Cc3cc(ccc3OS1(=O)=O)OCCCCn1nnc3c(C)c(ccc31)[C@H]2CC(=O)O [Example 7a, [(8S)-4,31-Dimethyl-27,27-dioxo-21,26-dioxa-27λ^6-thia-1,14,15,16-tetraazahexacyclo[20.5.3.1^3,70.1^9,130.0^12,160.0^25,29]dotriaconta-3(32),4,6,9(31),10,12,14,22,24,29-decaen-8-yl]acetic acid]	23 nM	
5 nM	COCCC1CCOc2ccc3c(c2)CN([C@H](C)c2cc(ccc2C)[C@@H](CC(=O)O)c2ccc4c(nnn4C1)c2C)S(=O)(=O)O3 (single isomer, unassigned) [Example 24c]	60 nM	
0.778 nM	Cc1ccc2cc1CN1Cc3cc(ccc3OS1(=O)=O)OCCCCCCn1nnc3c(C)c(ccc31)C2CC(=O)O (single isomer, unassigned) [Example 11b, [4,33-Dimethyl-29,29-dioxo-23,28-dioxa-29λ^6-thia-1,14,15,16-tetraazahexacyclo[22.5.3.1^3,70.1^9,130.0^12,160.0^27,31]tetratriaconta-3(34),4,6,9(33),10,12,14,24,26,31-decaen-8-yl]acetic acid]		13.1 nM
730 nM	Cc1ccc2cc1CN1Cc3cc(ccc3OS1(=O)=O)OCCCCn1cc(nn1)C(=O)NC2CC(=O)O (single isomer, unassigned) [Example 72b, [4-Methyl-10,25,25-trioxo-19,24-dioxa-25λ^6-thia-1,9,12,13,14-pentaazapentacyclo[18.5.3.1^3,70.1^11,140.0^23,27]triaconta-3(30),4,6,11(29),12,20,22,27-octaen-8-yl]acetic acid]		> 3160 nM
2.03 nM	Cc1ccc2cc1CN1Cc3c(ccc(c3Cl)OCCCCn3nnc4c(C)c(cc(Cl)c43)[C@@H]2CC(=O)O)OS1(=O)=O [Example 51, [(8R)-11,30-Dichloro-4,31-dimethyl-27,27-dioxo-21,26-dioxa-27λ^6-thia-1,14,15,16-tetraazahexacyclo[20.5.3.1^3,70.1^9,130.0^12,160.0^25,29]dotriaconta-3(32),4,6,9(31),10,12,14,22,24,29-decaen-8-yl]acetic acid]	103 nM	
1.1 nM	COCCC1CCOc2ccc3c(c2)CN([C@H](C)c2cc(ccc2C)[C@H](CC(=O)O)c2ccc4c(nnn4C1)c2C)S(=O)(=O)O3 (single isomer, unassigned) [Example 24a]		7.28 nM
0.646 nM	Cc1ccc2cc1[C@@H](C)N1Cc3cc(ccc3OS1(=O)=O)OCCCCCCn1nnc3c(C)c(ccc31)[C@H]2CC(=O)O [Example 19b, [(2R,8S)-2,4,33-trimethyl-29,29-dioxo-23,28-dioxa-29λ^6-thia-1,14,15,16-tetraazahexacyclo[22.5.3.1^3,70.1^9,130.0^12,160.0^27,31]tetratriaconta-3(34),4,6,9(33),10,12,14,24,26,31-decaen-8-yl]acetic acid]	2.76 nM	
9.99 nM	Cc1c2ccc3c1nnn3CCCCOc1ccc3c(c1)CN(Cc1cc(ccc1Cl)C2CC(=O)O)S(=O)(=O)O3 (single isomer, unassigned) [Example 9b, [4-Chloro-31-methyl-27,27-dioxo-21,26-dioxa-27λ^6-thia-1,14,15,16-tetraazahexacyclo[20.5.3.1^3,70.1^9,130.0^12,160.0^25,29]dotriaconta-3(32),4,6,9(31),10,12,14,22,24,29-decaen-8-yl]acetic acid]		845 nM

SMILES	Kd [2]	EC50 [1, 3]	EC50 [1, 4]
Cc1ccc2cc1CN1Cc3cc(ccc3OS1(=O)=O)OCCN(c1ccccc1)CCn1nnc3c(C)c(ccc31)C2CC(=O)O (single isomer, unassigned) [Example 58a, [4,32-Dimethyl-28,28-dioxo-19-phenyl-22,27-dioxa-28λ^6-thia-1,14,15,16,19-pentaazahexacyclo[21.5.3.1^3,70.1^9,130.0^12,160.0^26,30]tritriaconta-3(33),4,6,9(32),10,12,14,23,25,30-decaen-8-yl]acetic acid]	4.66 nM		90.4 nM
